According to US20260200920A1, “SUBSTITUTED AMINOPYRIDINE COMPOUNDS FOR USE AS AKT1 INHIBITORS” (Atavistik Bio, Inc., priority 2023, published 2026):
pIC50: −log10 of the molar value.

Legend:
[1] = target: T1, human recombinant kinase full-length AKT1 E17K (Homo sapiens, UniProt P31749, E17K); experiment: AKT1 E17K kinase assay (TR-FRET, Lance); type: biochemical; conditions: 0.6 nM AKT1 E17K, 50 nM Ulight-CREBtide, either 50 μM ATP or 2 mM ATP, 60 min at RT
T1 construct: Purified human recombinant kinase full-length AKT1 E17K was expressed in insect cells; made in house; host or cells: insect cells
In short: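 IC50 came from a 10-point, 4-parameter fit of the 665/620 TR-FRET ratio read with Eu-anti-phospho-CREB (Ser133). Reaction at RT for 60 min after 15 min compound preincubation, using 0.6 nM PDPK1-activated full-length AKT1 E17K (insect-cell), 50 nM Ulight-CREBtide, ATP at 50 μM or 2 mM, HEPES pH 7.5, 1% DMSO.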

[2] = target: T2, human recombinant kinase full-length wildtype AKT1 (Homo sapiens, UniProt P31749); experiment: AKT1 kinase assay (wildtype, TR-FRET, Lance); type: biochemical; conditions: 0.6 nM wildtype AKT1, 50 nM Ulight-CREBtide, either 50 μM ATP or 2 mM ATP, 60 min at RT
T2 construct: Purified human recombinant kinase full-length wildtype AKT1 was expressed in insect cells; made in house; host or cells: insect cells
In short: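 TR-FRET 665/620 ratio quantified phospho-CREBtide formed by PDPK1-activated full-length human AKT1 (0.6 nM, insect-cell-derived) over 60 min at RT with 50 nM ULight-CREBtide and either 50 μM or 2 mM ATP. Compounds were preincubated 15 min with enzyme; IC50 came from 4-parameter fits of 10-point duplicates.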

T1 sequence (P31749 whole entry E17K): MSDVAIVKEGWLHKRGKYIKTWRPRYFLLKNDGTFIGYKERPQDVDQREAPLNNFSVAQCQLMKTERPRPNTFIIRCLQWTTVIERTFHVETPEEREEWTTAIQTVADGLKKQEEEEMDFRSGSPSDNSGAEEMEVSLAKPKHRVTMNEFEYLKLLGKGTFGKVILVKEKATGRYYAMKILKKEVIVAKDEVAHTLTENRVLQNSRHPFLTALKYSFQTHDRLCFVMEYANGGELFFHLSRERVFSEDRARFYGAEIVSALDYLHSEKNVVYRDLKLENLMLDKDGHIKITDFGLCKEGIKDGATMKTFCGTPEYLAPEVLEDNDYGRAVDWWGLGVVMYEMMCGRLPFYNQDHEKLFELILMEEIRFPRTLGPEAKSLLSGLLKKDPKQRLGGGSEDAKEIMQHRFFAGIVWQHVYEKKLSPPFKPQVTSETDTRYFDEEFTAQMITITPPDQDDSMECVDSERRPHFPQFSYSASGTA
T2 sequence (P31749 whole entry): as the sequence (P31749 whole entry E17K) above, with K17E counted along it

Compound	pIC50 [1]	pIC50 [2]
Cc1nc(NC(=O)C2CCC(C)(C(=O)O)CC2)ccc1-n1c(-c2cccnc2N)nc2ccc(-c3ccccc3)nc21 (centres unmarked) [Compound I-128, 4-((5-(2-(2-aminopyridin-3-yl)-5-phenyl-3H-imidazo[4,5-b]pyridin-3-yl)-6-methylpyridin-2-yl)carbamoyl)-1-methylcyclohexane-1-carboxylic acid]	5.70 to 6.30	> 4.70
Cc1nc(NC(=O)C2CCC(C(=O)O)C2)ccc1-n1c(-c2cccnc2N)nc2ccc(-c3ccccc3)nc21 (centres unmarked) [Compound I-129, 3-((5-(2-(2-aminopyridin-3-yl)-5-phenyl-3H-imidazo[4,5-b]pyridin-3-yl)-6-methylpyridin-2-yl)carbamoyl)cyclopentane-1-carboxylic acid]	5.70 to 6.30	> 4.70
Cc1nc(NC(=O)[C@H]2CC[C@H](C(=O)O)CC2)ccc1-n1c(-c2cccnc2N)nc2ccc(-c3ccccn3)cc21 [Compound I-130, (1r,4r)-4-((5-(2-(2-aminopyridin-3-yl)-6-(pyridin-2-yl)-1H-benzo[d]imidazol-1-yl)-6-methylpyridin-2-yl)carbamoyl)cyclohexane-1-carboxylic acid]	≤ 5.70	> 4.70
Cc1nc(NC[C@H]2CC[C@H](C(=O)O)CC2)ccc1-n1c(-c2cccnc2N)nc2ccc(-c3ccccc3)nc21 [Compound I-131, (1r,4r)-4-(((5-(2-(2-aminopyridin-3-yl)-5-phenyl-3H-imidazo[4,5-b]pyridin-3-yl)-6-methylpyridin-2-yl)amino)methyl)cyclohexane-1-carboxylic acid]	5.70 to 6.30	> 4.70
Cc1nc(NC(=O)C2CCC(C(C)C(=O)O)C2)ccc1-n1c(-c2cccnc2N)nc2ccc(-c3ccccc3)nc21 (centres unmarked) [Compound I-132, 2-(3-((5-(2-(2-aminopyridin-3-yl)-5-phenyl-3H-imidazo[4,5-b]pyridin-3-yl)-6-methylpyridin-2-yl)carbamoyl)cyclopentyl)propanoic acid]	5.70 to 6.30	> 4.70
Cc1nc(-n2c(-c3cccnc3N)nc3ccc(-c4ccccn4)cc32)ccc1NC(=O)[C@H]1CC[C@H](C(=O)O)CC1 [Compound I-133, (1r,4r)-4-((6-(2-(2-aminopyridin-3-yl)-6-(pyridin-2-yl)-1H-benzo[d]imidazol-1-yl)-2-methylpyridin-3-yl)carbamoyl)cyclohexane-1-carboxylic acid]	≤ 5.70	> 4.70

Results, then the compound that gave them:

pIC50 [1]	pIC50 [2]	Compound
5.70 to 6.30	> 4.70	Cc1nc(N[C@H]2CC[C@@H](C(=O)O)CC2)ccc1-n1c(-c2cccnc2N)nc2ccc(-c3ccccc3)nc21 [Compound I-134, (1s,4s)-4-((5-(2-(2-aminopyridin-3-yl)-5-phenyl-3H-imidazo[4,5-b]pyridin-3-yl)-6-methylpyridin-2-yl)amino)cyclohexane-1-carboxylic acid]
≤ 5.70	> 4.70	CC(C)(C(=O)O)C1CCN(Cc2ccc(-n3c(-c4cccnc4N)nc4ccc(-c5ccccc5)nc43)cn2)CC1 [Compound I-135, 2-(1-((5-(2-(2-aminopyridin-3-yl)-5-phenyl-3H-imidazo[4,5-b]pyridin-3-yl)pyridin-2-yl)methyl)piperidin-4-yl)-2-methylpropanoic acid]
5.70 to 6.30	> 4.70	Nc1ncccc1-c1nc2ccc(-c3ccccc3)nc2n1-c1ccc(CN2CC3(CC(C(=O)O)C3)C2)nc1 [Compound I-136, 2-((5-(2-(2-aminopyridin-3-yl)-5-phenyl-3H-imidazo[4,5-b]pyridin-3-yl)pyridin-2-yl)methyl)-2-azaspiro[3.3]heptane-6-carboxylic acid]
> 6.30	> 4.70	Nc1ncccc1-c1nc2ccc(-c3ccccc3)nc2n1-c1ccc(NCC2CC3(C2)CC(C(=O)O)C3)nc1 (centres unmarked) [Compound I-137, 6-(((5-(2-(2-aminopyridin-3-yl)-5-phenyl-3H-imidazo[4,5-b]pyridin-3-yl)pyridin-2-yl)amino)methyl)spiro[3.3]heptane-2-carboxylic acid]
